In the assay the test system is HEK293-STF3A cells. Briefly: STF3A assay (STF luciferase reporter in Wnt3A-expressing HEK293 cells). The assay is classed as cell-based. The following applies: Homo sapiens, 24 h, 1 day of treatment. The text has this: HEK293-STF cell line was modified from Human embryonic kidney cell line HEK293 transfected with the STF reporter. HEK293-STF3A cell line was further modified from HEK293-STF cell line to express Wnt3A. This cell line was used to identify compounds that regulate either early or late signaling components of the Wnt pathway. These two cell lines were obtained from David Virshup's laboratory, Duke-NUS. L-Wnt3A (ATCC, #CRL-2647) cell line was used for providing Wnt3A conditioned media. The three cell lines were grown in DMEM with 10% FBS incubated in 37° C. with 5% CO2.
2×10^4 HEK293-STF3A cells in 75 μl culture media were seeded in each well of white 96 well plates (Greiner #655098) and incubated overnight at 37° C. 25 μl serially diluted compound was added to the cells to give final concentration of 50 μM to 1.5 nM. After 1 day of treatment, 100 μl of Steady-Glo Luciferase Assay reagent (#E2520, Promega) was added to each well and incubated for 10 minutes at room temperature. Luminescence was measured using Tecan Safire2 plate reader.
Background: In a reporter assay the amount or activity of a reporter protein is the signal.

By IC50 is commonly meant the concentration needed to halve the response being measured.

Where only a bound is given, the exact number is not on record here.

Take `C[C@@H](C(=O)Nc1ccc(-c2cccnc2)cn1)N1CCCC2=C1C(=O)N(C)C2=O` (single isomer, unassigned) [Compound 92]: the 50% inhibitory concentration (IC50) is less than 100 nM.

The molecule `C[C@H](C(=O)Nc1ccc(-c2cccnc2)cn1)N1CCCC2=C1C(=O)N(C)C2=O` (single isomer, unassigned) [Compound 93] had an IC50 of less than 1000 nM.

The molecule `C[C@@H](C(=O)Nc1ccc(-c2ccccc2)nn1)N1CCCC2=C1C(=O)N(C)C2=O` (single isomer, unassigned) [Compound 94] displayed an IC50 of less than 100 nM.

In the case of `C[C@H](C(=O)Nc1ccc(-c2ccccc2)nn1)N1CCCC2=C1C(=O)N(C)C2=O` (single isomer, unassigned) [Compound 95], the IC50 is greater than 10000 nM.

The molecule `C[C@@H](C(=O)Nc1ccc(-c2cccnc2)nc1)N1CCCC2=C1C(=O)N(C)C2=O` (single isomer, unassigned) [Compound 116] gave a half-maximal inhibitory concentration (IC50) of less than 100 nM.

In turn, `C[C@H](C(=O)Nc1ccc(-c2cccnc2)nc1)N1CCCC2=C1C(=O)N(C)C2=O` (single isomer, unassigned) [Compound 117] had an IC50 of less than 1000 nM.

Regarding `CN1C(=O)C2=C(C1=O)N(CC(=O)Nc1ccc(-c3ccccn3)cn1)CCC2` [Compound 1, N-([2,3′-bipyridin]-6′-yl)-2-(6-methyl-5,7-dioxo-2,3,4,5,6,7-hexahydro-1H-pyrrolo[3,4-b]pyridin-1-yl)acetamide], the IC50 is less than 100 nM.

In turn, `CN1C(=O)C2=C(C1=O)N(CC(=O)Nc1ccc(-c3nccs3)cc1)CCC2` [Compound 2, 2-(6-methyl-5,7-dioxo-2,3,4,5,6,7-hexahydro-1H-pyrrolo[3,4-b]pyridin-1-yl)-N-(4-(thiazol-2-yl)phenyl)acetamide] showed a 50% inhibitory concentration (IC50) of less than 100 nM.

`CN1C(=O)C2=C(C1=O)N(CC(=O)Nc1ccc(-c3ccccc3)nn1)CCC2` [Compound 3, 2-(6-methyl-5,7-dioxo-2,3,4,5,6,7-hexahydro-1H-pyrrolo[3,4-b]pyridin-1-yl)-N-(6-phenylpyridazin-3-yl)acetamide] registered an IC50 of less than 100 nM.

`CN1C(=O)C2=C(C1=O)N(CC(=O)Nc1ccc(-c3ccc(F)cc3)nn1)CCC2` [Compound 4, N-(6-(4-fluorophenyl)pyridazin-3-yl)-2-(6-methyl-5,7-dioxo-2,3,4,5,6,7-hexahydro-1H-pyrrolo[3,4-b]pyridin-1-yl)acetamide] gave an IC50 of less than 100 nM.

`CN1C(=O)C2=C(C1=O)N(CC(=O)Nc1ccc(-c3ccccc3)cn1)CCC2` [Compound 5, 2-(6-methyl-5,7-dioxo-2,3,4,5,6,7-hexahydro-1H-pyrrolo[3,4-b]pyridin-1-yl)-N-(5-phenylpyridin-2-yl)acetamide] returned an IC50 of less than 100 nM.

`CN1C(=O)C2=C(C1=O)N(CC(=O)Nc1ccc(-c3nccs3)cn1)CCC2` [Compound 6, 2-(6-methyl-5,7-dioxo-2,3,4,5,6,7-hexahydro-1H-pyrrolo[3,4-b]pyridin-1-yl)-N-(5-(thiazol-2-yl)pyridin-2-yl)acetamide] had a half-inhibitory concentration (IC50) of less than 100 nM.

In the case of `CN1C(=O)C2=C(C1=O)N(CC(=O)Nc1ccc(-c3ccc(F)cc3)cn1)CCC2` [Compound 7, N-(5-(4-fluorophenyl)pyridin-2-yl)-2-(6-methyl-5,7-dioxo-2,3,4,5,6,7-hexahydro-1H-pyrrolo[3,4-b]pyridin-1-yl)acetamide], the IC50 was less than 100 nM.

Consider `CN1C(=O)C2=C(C1=O)N(CC(=O)Nc1ccc(-c3cccnc3)cn1)CCC2` [Compound 8, N-([3,3′-bipyridin]-6-yl)-2-(6-methyl-5,7-dioxo-2,3,4,5,6,7-hexahydro-1H-pyrrolo[3,4-b]pyridin-1-yl)acetamide], for which the IC50 is less than 100 nM.

With `CN1C(=O)C2=C(C1=O)N(CC(=O)Nc1ccc(-c3cccnc3)nc1)CCC2` [Compound 10, N-([2,3′-bipyridin]-5-yl)-2-(6-methyl-5,7-dioxo-2,3,4,5,6,7-hexahydro-1H-pyrrolo[3,4-b]pyridin-1-yl)acetamide], the half-maximal inhibitory concentration (IC50) is less than 100 nM.

`CC(C(=O)Nc1ccc(-c2cccnc2)cn1)N1CCCC2=C1C(=O)N(C)C2=O` (stereo not drawn) [Compound 11, N-([3,3′-bipyridin]-6-yl)-2-(6-methyl-5,7-dioxo-2,3,4,5,6,7-hexahydro-1H-pyrrolo[3,4-b]pyridin-1-yl)propanamide] gave a half-maximal inhibitory concentration (IC50) of less than 100 nM.

In turn, `CN1C(=O)C2=C(C1=O)N(CC(=O)Nc1cnc(-c3ccccc3)cn1)CCC2` [Compound 12, 2-(6-methyl-5,7-dioxo-2,3,4,5,6,7-hexahydro-1H-pyrrolo[3,4-b]pyridin-1-yl)-N-(5-phenylpyrazin-2-yl)acetamide] yielded a half-maximal inhibitory concentration (IC50) of less than 100 nM.

In turn, `CC(C(=O)Nc1ccc(-c2ccccc2)nn1)N1CCCC2=C1C(=O)N(C)C2=O` (stereo not drawn) [Compound 13, 2-(6-methyl-5,7-dioxo-2,3,4,5,6,7-hexahydro-1H-pyrrolo[3,4-b]pyridin-1-yl)-N-(6-phenylpyridazin-3-yl)propanamide] displayed an IC50 of less than 100 nM.

The molecule `Cc1nc(-c2ccc(NC(=O)CN3CCCC4=C3C(=O)N(C3CC3)C4=O)nc2)cs1` [Compound 15, 2-(6-cyclopropyl-5,7-dioxo-2,3,4,5,6,7-hexahydro-1H-pyrrolo[3,4-b]pyridin-1-yl)-N-(5-(2-methylthiazol-4-yl)pyridin-2-yl)acetamide] registered an IC50 of less than 100 nM.

Take `O=C(CN1CCCC2=C1C(=O)N(C1CC1)C2=O)Nc1ccc(-c2ccccn2)cn1` [Compound 16, N-([2,3′-bipyridin]-6′-yl)-2-(6-cyclopropyl-5,7-dioxo-2,3,4,5,6,7-hexahydro-1H-pyrrolo[3,4-b]pyridin-1-yl)acetamide]: the half-maximal inhibitory concentration (IC50) is less than 100 nM.

With `CC(C(=O)Nc1ccc(-c2ccccn2)cn1)N1CCCC2=C1C(=O)N(C)C2=O` (stereo not drawn) [Compound 17, N-([2,3′-bipyridin]-6′-yl)-2-(6-methyl-5,7-dioxo-2,3,4,5,6,7-hexahydro-1H-pyrrolo[3,4-b]pyridin-1-yl)propanamide], the IC50 is less than 100 nM.

`CC(C(=O)Nc1cc(-c2cccc(Cl)c2)no1)N1CCCC2=C1C(=O)N(C)C2=O` (stereo not drawn) [Compound 18, N-(3-(3-chlorophenyl)isoxazol-5-yl)-2-(6-methyl-5,7-dioxo-2,3,4,5,6,7-hexahydro-1H-pyrrolo[3,4-b]pyridin-1-yl)propanamide] returned a 50% inhibitory concentration (IC50) of less than 5000 nM.

In turn, `CC(C(=O)Nc1cnc(-c2ccccc2)cn1)N1CCCC2=C1C(=O)N(C)C2=O` (stereo not drawn) [Compound 19, 2-(6-methyl-5,7-dioxo-2,3,4,5,6,7-hexahydro-1H-pyrrolo[3,4-b]pyridin-1-yl)-N-(5-phenylpyrazin-2-yl)propanamide] displayed an IC50 of less than 100 nM.

On to `CC(C(=O)Nc1ccc(-c2cccnc2)nc1)N1CCCC2=C1C(=O)N(C)C2=O` (stereo not drawn) [Compound 20, N-([2,3′-bipyridin]-5-yl)-2-(6-methyl-5,7-dioxo-2,3,4,5,6,7-hexahydro-1H-pyrrolo[3,4-b]pyridin-1-yl)propanamide], for which the IC50 was less than 100 nM.

Molecule `CN1C(=O)C2=C(C1=O)N(CC(=O)Nc1cnc(-c3cccnc3)cn1)CCC2` [Compound 21, 2-(6-methyl-5,7-dioxo-2,3,4,5,6,7-hexahydro-1H-pyrrolo[3,4-b]pyridin-1-yl)-N-(5-(pyridin-3-yl)pyrazin-2-yl)acetamide] yielded an IC50 of less than 100 nM.

`CN1C(=O)C2=C(C1=O)N(CC(=O)Nc1cnc(-c3ccncc3)cn1)CCC2` [Compound 22, 2-(6-methyl-5,7-dioxo-2,3,4,5,6,7-hexahydro-1H-pyrrolo[3,4-b]pyridin-1-yl)-N-(5-(pyridin-4-yl)pyrazin-2-yl)acetamide] showed a half-inhibitory concentration (IC50) greater than 10000 nM.

In turn, `CC(C(=O)Nc1cnc(-c2cccnc2)cn1)N1CCCC2=C1C(=O)N(C)C2=O` (stereo not drawn) [Compound 23, 2-(6-methyl-5,7-dioxo-2,3,4,5,6,7-hexahydro-1H-pyrrolo[3,4-b]pyridin-1-yl)-N-(5-(pyridin-3-yl)pyrazin-2-yl)propanamide] gave an IC50 of less than 100 nM.

`Cc1ccc(-c2ccc(NC(=O)CN3CCCC4=C3C(=O)N(C)C4=O)cn2)cn1` [Compound 24, 2-(6-methyl-5,7-dioxo-2,3,4,5,6,7-hexahydro-1H-pyrrolo[3,4-b]pyridin-1-yl)-N-(6′-methyl-[2,3′-bipyridin]-5-yl)acetamide] returned an IC50 of less than 100 nM.

Consider `CN1C(=O)C2=C(C1=O)N(CC(=O)Nc1ccc(-c3cccnc3)nn1)CCC2` [Compound 25, 2-(6-methyl-5,7-dioxo-2,3,4,5,6,7-hexahydro-1H-pyrrolo[3,4-b]pyridin-1-yl)-N-(6-(pyridin-3-yl)pyridazin-3-yl)acetamide], for which the IC50 is less than 100 nM.

Consider `O=C(CN1CCCC2=C1C(=O)N(C1CC1)C2=O)Nc1cnc(-c2cccnc2)cn1` [Compound 26, 2-(6-cyclopropyl-5,7-dioxo-2,3,4,5,6,7-hexahydro-1H-pyrrolo[3,4-b]pyridin-1-yl)-N-(5-(pyridin-3-yl)pyrazin-2-yl)acetamide], for which the IC50 is less than 100 nM.

`Cc1ccccc1-c1ccc(NC(=O)CN2CCCC3=C2C(=O)N(C)C3=O)nn1` [Compound 27, 2-(6-methyl-5,7-dioxo-2,3,4,5,6,7-hexahydro-1H-pyrrolo[3,4-b]pyridin-1-yl)-N-(6-(o-tolyl)pyridazin-3-yl)acetamide] showed an IC50 of less than 1000 nM.

In turn, `COc1ccccc1-c1ccc(NC(=O)CN2CCCC3=C2C(=O)N(C)C3=O)nn1` [Compound 28, N-(6-(2-methoxyphenyl)pyridazin-3-yl)-2-(6-methyl-5,7-dioxo-2,3,4,5,6,7-hexahydro-1H-pyrrolo[3,4-b]pyridin-1-yl)acetamide] showed a half-maximal inhibitory concentration (IC50) greater than 10000 nM.

In turn, `Cc1cccc(-c2ccc(NC(=O)CN3CCCC4=C3C(=O)N(C)C4=O)nn2)c1` [Compound 29, 2-(6-methyl-5,7-dioxo-2,3,4,5,6,7-hexahydro-1H-pyrrolo[3,4-b]pyridin-1-yl)-N-(6-(m-tolyl)pyridazin-3-yl)acetamide] registered an IC50 of less than 100 nM.

The values are drawn from patent US9981964B2 (Agency for Science, Technology and Research, priority 2013, dated 2018).
